PMC5004176, “The antifungal plant defensin AtPDF2.3 from Arabidopsis thaliana blocks potassium channels” (Scientific Reports, 2016)
Ends that are not written are not given here.

Columns and labels:
[1] = test system: HepG2 cells; assay type: cell-based; details: up to 25 μM, 24 hours, XTT, relative to untreated, at least two experiments in quadruplicate
Experimental: HepG2 cells were seeded at 10.000 cells/well in 96-well plates and incubated for 24 hours. Subsequently, cells were treated either with water (untreated) or rAtPDF2.3 (0.01 μM–23.5 μM) for 24 hours after which cell viability was determined using the ‘Cell Proliferation Kit II (XTT) as described previously. ANOVA followed by Dunnett post hoc test was performed to analyze statistically significant differences between untreated and rAtPDF2.3-treated samples.
Supplementary Figure S4 Activity of rAtPDF2.3 on HepG2 cell viability. HepG2 cells were treated either with water (untreated) or rAtPDF2.3 (0.01 µM – 24.3 µM) for 24 hours, after which cell viability was determined by XTT staining. Results are expressed relative to the untreated samples. Mean ± standard error of at least two experiments in quadruplicate is shown. ANOVA followed by Dunnet post hoc test performed to analyze statistically significant differences between untreated and rAtPDF2.3-treated samples; * represents P = 0.03.
(1 picture or pasted object on this page, not shown here)

[2] = test system: plant pathogenic fungi; experiment: Fungal growth inhibitory assay, whole panel; assay type: cell-based; details: range over the fungal panel of Table 1, 48 hours; read-out: IC50 values against all plant pathogenic fungi tested (range)
[3] = test system: Saccharomyces cerevisiae BY4741 ∆ppz1; experiment: Yeast growth inhibitory assay; assay type: cell-based; details: BY4741 ∆ppz1, MM medium, 24 hours, OD490nm, mean ± SEM, n ≥ 3; read-out: IC50 (growth inhibition)
[4] = test system: Nav1.2; experiment: Two-electrode voltage-clamp on Nav1.2 expressed in X. laevis oocytes; assay type: cell-based; details: 5 μM, n ≥ 4
[5] = test system: Kv1.5; experiment: Two-electrode voltage-clamp on Kv1.5 expressed in X. laevis oocytes; details: 3 μM, n ≥ 3
Experimental: (§1) For the expression of the voltage-gated potassium channels (rKv1.1, rKv1.2, hKv1.3, rKv1.4, rKv1.5, rKv1.6, Shaker IR, hKv3.1, rKv4.3, and hERG) in Xenopus laevis oocytes, the linearized plasmids were transcribed using the T7 or SP6 mMESSAGE-mMACHINE transcription kit (Ambion). The harvesting of stage V–VI oocytes from an anaesthetized female X. laevis frog was previously described[59]. Oocytes were injected with 50 nL of cRNA at a concentration of 1 ng/nL using a micro-injector (Drummond Scientific, USA). The oocytes were incubated in a solution containing (in mM): NaCl, 96; KCl, 2; CaCl2, 1.8; MgCl2, 2 and HEPES, 5 (pH 7.4), supplemented with 50 mg/L gentamycin sulfate.
(§2) Two-electrode voltage-clamp recordings were performed at room temperature (18–22 °C) using a Geneclamp 500 amplifier (Molecular Devices, USA) controlled by a pClamp data acquisition system (Axon Instruments, USA). Whole cell currents from oocytes were recorded 1–4 days after injection. Bath solution composition was ND96 (in mM): NaCl, 96; KCl, 2; CaCl2, 1.8; MgCl2, 2 and HEPES, 5 (pH 7.4) or HK (in mM): NaCl, 2; KCl, 96; CaCl2, 1.8; MgCl2, 2 and HEPES, 5 (pH 7.4). Voltage and current electrodes were filled with 3 M KCl. Resistances of both electrodes were kept between 0.7 and 1.5 MΩ. […] GV curves were calculated from IV relationships as follows: gK = IK/(Em−EK) with EK = (RT/zF)ln[K #0]o/[K #0]i. […]

[6] = test system: Saccharomyces cerevisiae BY4741 WT; experiment: Yeast growth inhibitory assay; assay type: cell-based; details: MM medium, ~10^6 cells/mL, 24 hours, OD490nm, mean ± SEM, n ≥ 3, read-out: IC50 (growth inhibition)
[7] = test system: Saccharomyces cerevisiae BY4741 ∆arl1; experiment: Yeast growth inhibitory assay; assay type: cell-based; details: BY4741 ∆arl1, MM medium, 24 hours, OD490nm, mean ± SEM, n ≥ 3; read-out: IC50 (growth inhibition)
[8] = test system: Saccharomyces cerevisiae BY4741 ∆sat4; experiment: Yeast growth inhibitory assay; assay type: cell-based; details: BY4741 ∆sat4, MM medium, 24 hours, OD490nm, mean ± SEM, n ≥ 3; read-out: IC50 (growth inhibition)
[9] = test system: Kv2.1; experiment: Two-electrode voltage-clamp on Kv2.1 expressed in X. laevis oocytes; details: 3 μM, n ≥ 3
Experimental: as §1, §2

[10] = test system: Kv1.2 channels; experiment: Two-electrode voltage-clamp on Kv1.2 expressed in X. laevis oocytes; details: for inhibition of the potassium current: Kv1.2, n ≥ 5
Experimental: as §1
Two-electrode voltage-clamp recordings were performed at room temperature (18–22 °C) using a Geneclamp 500 amplifier (Molecular Devices, USA) controlled by a pClamp data acquisition system (Axon Instruments, USA). Whole cell currents from oocytes were recorded 1–4 days after injection. Bath solution composition was ND96 (in mM): NaCl, 96; KCl, 2; CaCl2, 1.8; MgCl2, 2 and HEPES, 5 (pH 7.4) or HK (in mM): NaCl, 2; KCl, 96; CaCl2, 1.8; MgCl2, 2 and HEPES, 5 (pH 7.4). Voltage and current electrodes were filled with 3 M KCl. Resistances of both electrodes were kept between 0.7 and 1.5 MΩ. The elicited currents were filtered at 0.5 kHz and sampled at 2 kHz (for potassium currents) or filtered at 2 kHz and sampled at 20 kHz (for sodium currents) using a four-pole low-pass Bessel filter. Leak subtraction was performed using a -P/4 protocol. Kv1.1–Kv1.6 and Shaker currents were evoked by 250 ms depolarizations to 0 mV followed by a 250 ms pulse to −50 mV, from a holding potential of −90 mV. Current traces of hERG channels were elicited by applying a +40 mV prepulse for 2 s followed by a step to −120 mV for 2 s. […] In order to investigate the current–voltage relationship, current traces were evoked by 10 mV depolarization steps from a holding potential of −90 mV. To assess the concentration dependency of the toxin induced inhibitory effects, a concentration–response curve was constructed, in which the percentage of current inhibition was plotted as a function of toxin concentration. Data were fitted with the Hill equation: y = 100/[1 + (IC50/[toxin])^h], were y is the amplitude of the toxin-induced effect, IC50 is the toxin concentration at half-maximal efficacy, [toxin] is the toxin concentration, and h is the Hill coefficient. GV curves were calculated from IV relationships as follows: gK = IK/(Em−EK) with EK = (RT/zF)ln[K #0]o/[K #0]i. In these equations gK represents the conductance, IK the potassium current, Em the membrane potential, EK the reversal potential, R the gas constant (8.31 J/K mol), T the temperature, z the charge of the ion (for K+ ions: z = 1), F the Faraday’s constant (96.500 C/mol), [K #0]o and [K #0]i respectively are the extracellular and intracellular K+ ion concentrations. The values of IK or gK were plotted as function of voltage and fitted using the Boltzmann equation: gK/gmax = [1 + exp(Vg−V)/k]−1, were gmax represents maximal gK, Vg is the voltage corresponding to half-maximal conductance, and k is the slope factor. Comparison of two sample means was made using a paired Student’s t test (P < 0.05). All data represent at least three independent experiments (n ≥ 3) and are presented as mean ± standard error.

[11] = test system: Kv1.1; experiment: Two-electrode voltage-clamp on Kv1.1 expressed in X. laevis oocytes; details: 3 μM, n ≥ 3
Experimental: as §1, §2

[12] = test system: insect channel DmNav1; experiment: Two-electrode voltage-clamp on DmNav1 expressed in X. laevis oocytes; assay type: cell-based; details: 5 μM, n ≥ 4
[13] = test system: Fusarium graminearum PH-1; assay type: cell-based; details: read-out: IC50 (growth inhibition)
[14] = test system: Kv4.2; experiment: Two-electrode voltage-clamp on Kv4.2 expressed in X. laevis oocytes; details: 3 μM, n ≥ 3
Experimental: as §1, §2

[15] = test system: Saccharomyces cerevisiae BY4741 ∆tok1; experiment: Yeast growth inhibitory assay; assay type: cell-based; details: BY4741 ∆tok1, MM medium, 24 hours, OD490nm, mean ± SEM, n ≥ 3; read-out: IC50 (growth inhibition)
[16] = test system: Fusarium culmorum; experiment: Fungal growth inhibitory assay; assay type: cell-based; details: half strength PDB, 10^4 spores/mL, 48 hours, determined microscopically, n ≥ 3; read-out: IC50 (growth inhibition)
[17] = test system: Botrytis cinerea B05.10; experiment: Fungal growth inhibitory assay; assay type: cell-based; details: half strength PDB, 10^4 spores/mL, 48 hours, determined microscopically, n ≥ 3; read-out: IC50 (growth inhibition)
[18] = test system: Saccharomyces cerevisiae BY4741 ∆prm6; experiment: Yeast growth inhibitory assay; assay type: cell-based; details: BY4741 ∆prm6, MM medium, 24 hours, OD490nm, mean ± SEM, n ≥ 3; read-out: IC50 (growth inhibition)
[19] = test system: Saccharomyces cerevisiae BY4741 ∆ppz2; experiment: Yeast growth inhibitory assay; assay type: cell-based; details: BY4741 ∆ppz2, MM medium, 24 hours, OD490nm, mean ± SEM, n ≥ 3; read-out: IC50 (growth inhibition)
[20] = test system: Saccharomyces cerevisiae BY4741 ∆kkq8; experiment: Yeast growth inhibitory assay; assay type: cell-based; details: BY4741 ∆kkq8, MM medium, 24 hours, OD490nm, mean ± SEM, n ≥ 3; read-out: IC50 (growth inhibition)
[21] = test system: Saccharomyces cerevisiae BY4741 ∆trk1; experiment: Yeast growth inhibitory assay; assay type: cell-based; details: BY4741 ∆trk1, MM medium, 24 hours, OD490nm, mean ± SEM, n ≥ 3; read-out: IC50 (growth inhibition)
[22] = test system: Saccharomyces cerevisiae BY4743 WT; experiment: Yeast growth inhibitory assay; assay type: cell-based; details: MM medium, 24 hours, OD490nm, mean ± SEM, n ≥ 3, read-out: IC50 (growth inhibition)
[23] = test system: Shaker IR; experiment: Two-electrode voltage-clamp on Shaker IR expressed in X. laevis oocytes; details: 3 μM, n ≥ 3
Experimental: as §1, §2

[24] = test system: Nav1.5; experiment: Two-electrode voltage-clamp on Nav1.5 expressed in X. laevis oocytes; assay type: cell-based; details: 5 μM, n ≥ 4
[25] = test system: Saccharomyces cerevisiae BY4741 ∆trk2; experiment: Yeast growth inhibitory assay; assay type: cell-based; details: BY4741 ∆trk2, MM medium, 24 hours, OD490nm, mean ± SEM, n ≥ 3; read-out: IC50 (growth inhibition)
[26] = test system: Saccharomyces cerevisiae BY4741 ∆kch1; experiment: Yeast growth inhibitory assay; assay type: cell-based; details: BY4741 ∆kch1, MM medium, 24 hours, OD490nm, mean ± SEM, n ≥ 3; read-out: IC50 (growth inhibition)

rAtPDF2.3: Arabidopsis thaliana plant defensin AtPDF2.3 produced recombinantly in Pichia pastoris (RTCESKSHRFKGPCVSTHNCANVCHNEGFGGGKCRGFRRRCYCTRHC; ends and bridges not checked; cysteine pairing not given here)
cell viability in HepG2 cells [1]: does not reduce cell viability | IC50 [2]: 1 to 5.8 µM | IC50 [3]: 10.1 ± 0.5 µM | activity on Nav1.2 [4]: does not show activity | activity on Kv1.5 at single concentration [5]: no effect | IC50 [6]: 8.1 ± 0.9 µM | IC50 [7]: 5.7 ± 0.2 µM | IC50 [8]: 5.1 ± 0.1 µM | activity on Kv2.1 (Shab) at single concentration [9]: no effect | inhibition of the potassium current ([10]; 2 μM, HK solution): 66 ± 4% | inhibition of the potassium current ([10]; 2 μM, ND96 solution): 59 ± 3% | activity on Kv1.2 at single concentration ([10]; 3 μM, n ≥ 3): can block | reversal potential EK after application of defensin ([10]; HK solution, 2 μM, Kv1.2, control −4 ± 1 mV, P > 0.05, n ≥ 4): −2 ± 1 mV | V1/2 of gV curve in the presence of defensin ([10]; ND96, 2 μM, Kv1.2, control 8 ± 3 mV, n ≤ 4 as printed): 5 ± 2 mV | reversibility of Kv1.2 block upon washout ([10]; current recovers quickly and completely upon washout (data not shown)): blocking is reversible | IC50 ([10]; read-out: IC50 for Kv1.2, two-electrode voltage-clamp, X. laevis oocytes, concentration-response curve fitted with Hill equation, mean ± standard error, n ≥ 3): 1.3 ± 0.2 µM | voltage dependence of inhibition of Kv1.2 channels ([10]; test potentials from −30 to +30 mV): not voltage-dependent | activity on Kv1.1 at single concentration [11]: no effect | activity on DmNav1 [12]: does not show activity | IC50 [13]: 1.4 µM | activity on Kv4.2 (Shal) at single concentration [14]: no effect | IC50 [15]: 7.7 ± 0.5 µM | IC50 [16]: 1 ± 0.4 µM | IC50 [17]: 5.8 µM | IC50 [18]: 7.6 ± 0.2 µM | IC50 [19]: 8.6 ± 0.5 µM | IC50 [20]: 7.1 ± 0.1 µM | IC50 [21]: 1.5 µM | IC50 [22]: 3.3 µM | activity on Shaker IR at single concentration [23]: no effect | activity on Nav1.5 [24]: does not show activity | IC50 [25]: 7 ± 0.6 µM | IC50 [26]: 8.9 ± 0.3 µM
